Test results taken from PubChem BioAssay (NCI).
Several values for one entry are separate records, joined by “and”; a condition that tells them apart may be missing. Equal entries are not always repeated.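 Test compounds were applied to cells in 96-well plates for 48 hours at 5 doses. Here, GI50 denotes the concentration required for 50% inhibition of growth. TGI denotes the concentration required for complete inhibition of growth.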 Where a SMILES comes first, the peptide text is derived from it. [ ]: non-standard residue; d: D form. The star is where a group is joined. NMeV = CN[C@H](C(=O)O)C(C)C; X29 = COc1ccc(CN*)c(OC)c1; Octanoyl = CCCCCCCC(=O)*; dNMeA = CN[C@H](C)C(=O)O

Columns and labels:
Assay in all cases: inhibition of tumour cell growth, NCI panel, 48 h
[1] = test system: 786-0 renal
[2] = test system: A549 NSCLC
[3] = test system: BT-549 breast
[4] = test system: COLO 205 colon
[5] = test system: EKVX NSCLC
[6] = test system: HCC-2998 colon
[7] = test system: HCT-15 colon
[8] = test system: IGROV1 ovarian
[9] = test system: MCF7 breast
[10] = test system: MDA-MB-435
[11] = test system: MOLT-4 leukemia
[12] = test system: NCI-H226 lung
[13] = test system: RXF 393 renal
[14] = test system: SK-OV-3 ovarian
[15] = test system: SNB-75 CNS
[16] = test system: SR leukemia
[17] = test system: MDA-N

## CCCCCCCC(=O)N[C@H](C(=O)N[C@H](C(=O)N(C)[C@H](C(=O)N1CCC[C@H]1C(=O)N(C)[C@H](C)C(=O)NCc1ccc(OC)cc1OC)C(C)C)C(C)C)C(C)C (Octanoyl-VV[NMeV]P[dNMeA]-X29)
[1]
  TGI: > 100 µM
[2]
  TGI: 99 µM
[3]
  TGI: > 61.2 µM
[4]
  TGI: 22.7 µM
[5]
  TGI: 97.3 µM
[6]
  TGI: > 100 µM
[7]
  TGI: > 100 µM
[8]
  TGI: 32.8 µM
[9]
  TGI: 42.8 µM
[10]
  TGI: 28.9 µM
[11]
  TGI: > 90.4 µM
[12]
  TGI: 27.5 µM
[13]
  TGI: 46.1 µM
[14]
  TGI: > 100 µM
[15]
  TGI: > 100 µM
[16]
  TGI: > 65.6 µM

## COC(=O)c1onc(-c2c(OC)cc(OC)cc2OC)c1C(=O)OC
[1]
  TGI: > 100 µM
[2]
  TGI: > 100 µM
[4]
  TGI: > 100 µM
[5]
  TGI: > 100 µM
[6]
  TGI: > 100 µM
[7]
  TGI: > 100 µM
[8]
  TGI: > 100 µM
[11]
  TGI: > 100 µM
[12]
  TGI: > 100 µM
[13]
  TGI: > 100 µM
[14]
  TGI: > 100 µM
[15]
  TGI: > 100 µM
[16]
  TGI: > 100 µM

## COc1cccc(NC(=O)CSc2nnc(-c3ccc(NC(C)=O)cc3)o2)c1
[1]
  TGI: > 100 µM
[2]
  TGI: > 100 µM
[4]
  TGI: > 100 µM
[7]
  TGI: > 100 µM
[8]
  TGI: > 100 µM
[11]
  TGI: > 100 µM
[12]
  TGI: > 100 µM
[13]
  TGI: > 100 µM
[14]
  TGI: > 100 µM
[15]
  TGI: > 100 µM
[16]
  TGI: > 100 µM

## COCc1nc(N)nc(N2N=C(C)CC2(C)C)n1
[1]
  TGI: > 100 µM
[2]
  TGI: > 100 µM
[3]
  TGI: > 100 µM
[4]
  TGI: > 100 µM
[5]
  TGI: > 100 µM
[6]
  TGI: > 100 µM
[7]
  TGI: > 100 µM
[8]
  TGI: > 100 µM
[9]
  TGI: > 100 µM
[10]
  TGI: > 100 µM
[11]
  TGI: > 100 µM
[12]
  TGI: > 100 µM
[13]
  TGI: > 100 µM
[14]
  TGI: > 100 µM
[15]
  TGI: > 100 µM
[16]
  TGI: > 100 µM

## O=C(O)c1ccc(C2COc3ccc(Cl)cc3C2)cc1 (stereo unspecified)
[1]
  TGI: > 100 µM
[2]
  TGI: > 100 µM
[4]
  TGI: > 100 µM
[5]
  TGI: > 100 µM
[6]
  TGI: > 100 µM
[7]
  TGI: > 100 µM
[8]
  TGI: > 100 µM
[11]
  TGI: > 100 µM
[12]
  TGI: > 100 µM
[13]
  TGI: > 100 µM
[14]
  TGI: > 100 µM
[15]
  TGI: > 100 µM
[16]
  TGI: > 100 µM

## COc1cc2c3c(c1)CCCN3CCC2
[1]
  TGI: > 10 µM
[2]
  TGI: > 10 µM
[4]
  TGI: > 10 µM
[5]
  TGI: > 10 µM
[6]
  TGI: > 10 µM
[7]
  TGI: > 10 µM
[8]
  TGI: > 10 µM
[9]
  TGI: > 10 µM
[10]
  TGI: > 10 µM
[17]
  TGI: > 10 µM
[11]
  TGI: > 10 µM
[12]
  TGI: > 10 µM
[13]
  TGI: > 10 µM
[14]
  TGI: > 10 µM
[15]
  TGI: > 10 µM
[16]
  TGI: > 10 µM

## CC(=O)c1ccc2c(c1)CC1(C2)Cc2cc3c(cc2C1=O)CCC3 (stereo unspecified)
[1]
  TGI: 63.1 µM
[2]
  TGI: 59.5 µM
[4]
  TGI: 31.2 µM
[5]
  TGI: 64.8 µM
[6]
  TGI: 68.4 µM
[7]
  TGI: 95.9 µM
[8]
  TGI: 59 µM
[9]
  TGI: 43.8 µM
[10]
  TGI: 32.4 µM
[17]
  TGI: 32.9 µM
[11]
  TGI: 21.8 µM
[13]
  TGI: 90.4 µM
[14]
  TGI: 96.3 µM
[15]
  TGI: 41.2 µM
[16]
  TGI: 16.7 µM

## CCC(C=O)P1(=O)OC(C)(C)CN1C(C)(C)C (stereo unspecified)
[1]
  TGI: > 100 µM
[2]
  TGI: > 100 µM
[3]
  TGI: > 100 µM
[4]
  TGI: > 100 µM
[5]
  TGI: > 100 µM
[6]
  TGI: > 100 µM
[7]
  TGI: > 100 µM
[8]
  TGI: > 100 µM
[9]
  TGI: > 100 µM
[10]
  TGI: > 100 µM
[12]
  TGI: > 100 µM
[14]
  TGI: > 100 µM
[16]
  TGI: > 100 µM

## O=c1[nH]cc(COCCCO)c(=O)[nH]1
[1]
  TGI: > 100 µM
[2]
  TGI: > 100 µM
[4]
  TGI: > 100 µM
[5]
  TGI: > 100 µM
[7]
  TGI: > 100 µM
[8]
  TGI: > 100 µM
[11]
  TGI: > 100 µM
[12]
  TGI: > 100 µM
[13]
  TGI: > 100 µM
[14]
  TGI: > 100 µM
[15]
  TGI: > 100 µM
[16]
  TGI: > 100 µM

## C/C=C1\CN2CCc3c([nH]c4ccccc34)C2CC1C(=O)OC (stereo unspecified)
[1]
  TGI: > 322 µM
[2]
  TGI: > 322 µM
[4]
  TGI: > 322 µM
[5]
  TGI: > 322 µM
[6]
  TGI: > 322 µM
[7]
  TGI: > 322 µM
[8]
  TGI: > 322 µM
[11]
  TGI: > 322 µM
[12]
  TGI: > 322 µM
[13]
  TGI: > 322 µM
[14]
  TGI: > 322 µM
[16]
  TGI: > 322 µM

## COc1c(F)c(F)c(/C(O)=C\c2nc3ccccc3[nH]c2=O)c(F)c1F
[1]
  TGI: 5.99 µM
[2]
  TGI: > 10 µM
[4]
  TGI: > 10 µM
[5]
  TGI: > 10 µM
[6]
  TGI: > 10 µM
[7]
  TGI: > 10 µM
[8]
  TGI: > 10 µM
[9]
  TGI: > 10 µM
[10]
  TGI: > 10 µM
[17]
  TGI: > 10 µM
[11]
  TGI: > 10 µM
[13]
  TGI: > 10 µM
[14]
  TGI: > 10 µM
[15]
  TGI: 6.01 µM
[16]
  TGI: > 10 µM

## O=C(NC1CCCCC1NC(c1ccccc1)(c1ccccc1)c1ccccc1)C(=O)NC1CCCCC1NC(c1ccccc1)(c1ccccc1)c1ccccc1 (stereo unspecified)
[1]
  TGI: > 100 µM
[2]
  TGI: > 100 µM
[3]
  TGI: > 100 µM
[4]
  TGI: > 100 µM
[5]
  TGI: > 100 µM
[6]
  TGI: > 100 µM
[7]
  TGI: > 100 µM
[8]
  TGI: > 100 µM
[9]
  TGI: > 100 µM
[10]
  TGI: > 100 µM
[11]
  TGI: > 100 µM
[12]
  TGI: > 100 µM
[14]
  TGI: 92.8 µM
[15]
  TGI: 8.65 µM
[16]
  TGI: > 100 µM

## COC(=O)[C@@H]1CC(C(C[N+](=O)[O-])c2ccc(O[Si](C)(C)C(C)(C)C)cc2)C(=O)N1C(=O)OC(C)(C)C (stereo partly specified)
[1]
  TGI: > 100 µM
[2]
  TGI: > 100 µM
[4]
  GI50: > 100 µM and 26.2 µM
  TGI: > 100 µM
[5]
  TGI: > 100 µM
[8]
  TGI: > 100 µM
[9]
  TGI: > 100 µM
[10]
  TGI: > 100 µM
[17]
  TGI: > 100 µM
[11]
  GI50: 14.4 µM and 31.4 µM
  TGI: > 100 µM
[12]
  GI50: 12.6 µM and 35 µM
  TGI: > 100 µM
[13]
  TGI: > 100 µM
[14]
  TGI: > 100 µM
[15]
  TGI: > 100 µM
[16]
  TGI: > 100 µM

## C=CC[C@@H](N)C(=O)N(C)[C@@H](C)[C@@H](O)c1ccccc1
[1]
  TGI: > 100 µM
[2]
  TGI: > 100 µM
[3]
  TGI: > 100 µM
[4]
  TGI: > 100 µM
[7]
  TGI: > 100 µM
[8]
  TGI: > 100 µM
[10]
  TGI: > 100 µM
[17]
  TGI: > 100 µM
[11]
  TGI: > 100 µM
[12]
  TGI: > 100 µM
[14]
  TGI: > 100 µM
[15]
  TGI: > 100 µM

## Cc1ccc(/C=C/C(=O)C(C)(C)CN2CCCCC2)cc1
[1]
  TGI: 18.9 µM
[2]
  TGI: 33.1 µM
[4]
  TGI: 17.2 µM
[5]
  TGI: 14.3 µM
[6]
  TGI: 28.8 µM
[7]
  TGI: 20.1 µM
[8]
  TGI: 35.6 µM
[11]
  TGI: 7.55 µM
[12]
  TGI: 27.6 µM
[13]
  TGI: 18.7 µM
[14]
  TGI: 26.3 µM
[15]
  TGI: 19.5 µM

## CCOC(=O)C1C(c2ccc3c(c2)OCO3)c2c([nH][nH]c2=O)CC1(C)O (stereo unspecified)
[1]
  TGI: > 100 µM
[2]
  TGI: > 100 µM
[4]
  TGI: > 100 µM
[5]
  TGI: > 100 µM
[6]
  TGI: > 100 µM
[7]
  TGI: > 100 µM
[8]
  TGI: > 100 µM
[9]
  TGI: > 100 µM
[10]
  TGI: > 100 µM
[17]
  TGI: > 100 µM
[11]
  TGI: > 100 µM
[15]
  TGI: > 100 µM
[16]
  TGI: > 100 µM
